Data from patent US9187524B2, “Broad spectrum antibiotic arylomycin analogs” (The Scripps Research Institute, priority 2010, dated 2015).
Converted amounts (≈) assume the structure as drawn. Like-named read-outs stand apart in the source and are kept apart here.

Legend:
[1] = tested on: wild type P. aeruginosa PAO1; experiment: microbe, parasite or virus in culture; format: cell-based, Pseudomonas aeruginosa; details: for MIC: Pseudomonas aeruginosa
[2] = tested on: E. coli and P. aeruginosa serine mutants; experiment: MIC after permeabilizing with polymyxin B nonapeptide; format: cell-based
R. equi = experiment: microbe, parasite or virus in culture; format: cell-based; details: Rhodococcus (subgen. Prescottella) equi; Table 4
S. pneumoniae = experiment: microbe, parasite or virus in culture; format: cell-based, Streptococcus pneumoniae; details: for MIC: Streptococcus pneumoniae
wild type E. coli MG1655 = experiment: microbe, parasite or virus in culture; format: cell-based, Escherichia coli; details: for MIC: Escherichia coli
[3] = tested on: lepB(P29S) S. aureus 8325; experiment: microbe, parasite or virus in culture; format: cell-based, Staphylococcus aureus; details: for MIC: Staphylococcus aureus
[4] = target: T1, full-length P29S mutant S. aureus SPase (Ser-variant) (Staphylococcus aureus, UniProt P0A070, P29S); experiment: biochemical; format: binding
T1 construct: Full length His-tagged S. aureus SPase proteins were expressed in and purified from BL21(DE3); His6 (N); made in house; host or cells: E. coli BL21(DE3)

wild type S. aureus 8325 = experiment: microbe, parasite or virus in culture; format: cell-based, Staphylococcus aureus; details: for MIC: Staphylococcus aureus
Chlamydia trachomatis = experiment: microbe, parasite or virus in culture; format: cell-based
S. aureus Rosenbach 328 = experiment: microbe, parasite or virus in culture; format: cell-based; details: Staphylococcus aureus; MRSA strain
Clostridium perfringens = experiment: microbe, parasite or virus in culture; format: cell-based; details: read-out: MIC, Clostridium perfringens
[5] = tested on: spsB(S29P) S. epidermidis RP62A; experiment: microbe, parasite or virus in culture; format: cell-based, Staphylococcus epidermidis; details: for MIC: Staphylococcus epidermidis
[6] = target: T2, full-length wild type S. aureus SPase (Pro-variant) (Staphylococcus aureus, UniProt P0A070); experiment: biochemical; format: binding
T2 construct: Full length His-tagged S. aureus SPase proteins were expressed in and purified from BL21(DE3); His6 (N); made in house; host or cells: E. coli BL21(DE3)

[7] = Table 2B, SPase with resistance-conferring Pro

CCCCCCCCCCCCCCCC(=O)N(C)[C@H](CO)C(=O)N[C@H](C)C(=O)NCC(=O)N(C)[C@@H]1C(=O)N[C@@H](C)C(=O)N[C@H](C(=O)O)Cc2ccc(O)c(c2)-c2cc1ccc2O [Arylomycin C16]
MIC ([1]; PAO1, read-out: MIC, Resistant Pa): > 64 µg/mL | MIC ([1]; PAO1, Table 11, […], read-out: MIC, P. aeruginosa PAO1): > 128 µg/mL | MIC ([1]; PAO1, Table 13, […], read-out: MIC, Pseudomonas aeruginosa): > 128 µg/mL | MIC, Resistant Pa [1, 7]: >64 µg/mL | decrease of MIC on permeabilizing with polymyxin B nonapeptide [2]: ≤ 4 fold | MIC (R. equi): 16 µg/mL (≈ 18.2 µM) | MIC (S. pneumoniae; Table 4, read-out: MIC, S. pneumoniae): 8 µg/mL (≈ 9.08 µM) | MIC (S. pneumoniae; Table 13, […], read-out: MIC, Streptococcus pneumoniae): 16 µg/mL (≈ 18.2 µM) | MIC, S. pneumoniae (S. pneumoniae; Table 14): 8 µg/mL (≈ 9.08 µM) | MIC (wild type E. coli MG1655; MG1655, read-out: MIC, Resistant Ec): > 64 µg/mL | MIC (wild type E. coli MG1655; MG1655, Table 11, […], read-out: MIC, E. coli MG1655): > 128 µg/mL | MIC (wild type E. coli MG1655; MG1655, Table 13, […], read-out: MIC, Escherichia coli): > 128 µg/mL | MIC (wild type E. coli MG1655; MG1655, read-out: MIC, E. coli): > 64 µg/mL | MIC, Resistant Ec (wild type E. coli MG1655; [7]): >64 µg/mL | MIC ([3]; read-out: MIC, S. aureus P29S): 8 µg/mL (≈ 9.08 µM) | MIC ([3]; read-out: MIC, S. aureus PAS8001): 2 µg/mL (≈ 2.27 µM) | MIC ([3]; read-out: MIC, Sensitive Sa): 2 µg/mL (≈ 2.27 µM) | MIC, Sensitive Sa ([3]; Table 2B, SPase without resistance-conferring Pro): 2 µg/mL (≈ 2.27 µM) | Kd [4]: 130 ± 53 nM | MIC (wild type S. aureus 8325; read-out: MIC, Resistant Sa): > 64 µg/mL | MIC (wild type S. aureus 8325; Table 11, […], read-out: MIC, S. aureus NTCT 8325): > 128 µg/mL | MIC, Resistant Sa (wild type S. aureus 8325; [7]): >64 µg/mL | MIC (Chlamydia trachomatis; Table 13, […], read-out: MIC, Chlamydia trachomatis): 6 µg/mL (≈ 6.81 µM) | MIC (Chlamydia trachomatis; eradicated from human HeLa 229 cells, read-out: MIC, C. trachomatis): 6 µg/mL (≈ 6.81 µM) | MIC (S. aureus Rosenbach 328): 25 µg/mL (≈ 28.4 µM) | MIC (Clostridium perfringens): > 16 µg/mL | MIC ([5]; read-out: MIC, Resistant Se): 8 µg/mL (≈ 9.08 µM) | MIC ([5]; read-out: MIC, S. epidermidis PAS9001): 8 µg/mL (≈ 9.08 µM) | MIC ([5]; read-out: MIC, resistant S. epidermidis): 8 µg/mL (≈ 9.08 µM) | MIC, Resistant Se [5, 7]: 8 µg/mL (≈ 9.08 µM) | fold elevated MIC compared to the wild type strain, Ser to Pro at position 29 ([5]; ~75% of selected S. epidermidis mutants): 32 fold | Kd [6]: 1280 ± 278 nM
